{"source": "patent US5573772A", "about": "“Methods for protecting tissues and organs from ischemic damage” (priority 1994, dated 1996)", "test_system": "rabbit heart", "test": "Infarct size in isolated rabbit hearts, A3-receptor mediation of preconditioning, Example 3", "experimental": "New Zealand white rabbits of either sex, between 1.4-2.4 kg, were anesthetized with intravenous sodium pentobarbital (30 mg/kg). The neck was opened and a tracheotomy was performed. The rabbits were ventilated with 100% oxygen via a positive pressure respirator (MD industries, Mobile, Ala.). Ventilation rate was 30-35 breaths per minute, and tidal volume was approximately 15 ml. A left thoracotomy was performed in the fourth intercostal space and pericardium was opened to expose the heart. A 2-0 silk suture with an RB taper needle was passed around a branch of the left coronary artery, and the end of the silk were threaded through a small vinyl tube to form a snare. The heads were quickly excised and mounted on a Langendorff apparatus and perfused at constant pressure with Krebs buffer containing (in mM) 118.5 NaCl, 4.7 KCl, 1.2 MgSO4, 1.2 K2 PO4, 24.3 NaHCO3, 2.5 CaCl2 and 10 glucose. […] The temperature of the perfusate was maintained at 37° C. The perfusion pressure was kept at 75 mm Hg. Pacing electrodes were placed on the right atrium and all hearts were paced at 200 beats/minute with pulses of 5 volts and 4 msec duration to keep the heart rate constant. A fluid-filled latex balloon connected to a transducer via PE240 tubing was inserted into the left ventricle. Balloon volume was adjusted to set the left ventricular diastolic pressure at 10 mm Hg at the beginning of the experiment. Total coronary artery flow was measured by timed collection of buffer from the chamber into a graduated cylinder. Regional ischemia was effected by pulling the snare tight and clamping the tube with a hemostat. Global ischemia was performed by clamping the inflow tubing of the Langendorff apparatus. Reperfusion was achieved by releasing the restriction. All hearts were allowed to equilibrate for 20 minutes before the experiments were started. Heart rate (HR), coronary flow (CF) and left ventricular developed pressure (LVDP) were recorded at the point just before and at the end of each treatment with the pacing momentarily turned off. […] The hearts were removed from the Langendorff apparatus, weighed and then frozen. The hearts were cut into 2 mm transverse slices. The slices were thawed and incubated in 1% triphenyl tetrazolium chloride (TTC) in pH 7.4 buffer for 20 minutes at 37° C. TTC reacts with NADH and dehydrogenase enzymes and stains all tissue still having them to a deep red color. […] After staining, the area of infarcted tissue (TTC negative tissue) and the risk zone (area lacking fluorescence under ultraviolet light) in each slice were traced. The area of infarct and risk zone were determined by planimetry of the tracing. The volume of infarcted myocardium and myocardium at risk was then calculated by multiplying the planimetered areas by the slice thickness. The methods utilized in this example are identical to those described in Example 1. All hearts received 30 minutes of regional ischemia as described in Example 1. The control group (n=8) hearts received only 30 minutes of ischemia. Preconditioned (PC) hearts (n=10) received 5 minutes of global ischemia and 10 minutes of reperfusion prior to the regional ischemia. Adenosine (ADO) treated hearts (n=6) received 10 μM adenosine for 5 minutes prior to regional ischemia. APNEA treated hearts (n=6) received 65 μM APNEA for 5 minutes prior to regional ischemia. In groups receiving the nonselective adenosine blocker, 8-SPT, the blocker was included in the perfusate for 15 minutes at 100 μM starting 5 minutes before the exposure of ADO (ADO-SPT group, n=6), or APNEA (APNEA-SPT group, n=6 ) or 5 minutes before and after 5 minutes of preconditioning ischemia (PC-SPT group, n=5). […] For the PC-BW group (n=5), the A3-receptor antagonist, BW A1433, [Linden J, et al., Molecular Pharmacology 44:524-532 (1993)], was administered at a dose of 200 nM in the perfusate for 5 minutes before and 5 minutes after PC ischemia."}
{"molecule": "Nc1ncnc2c1ncn2[C@@H]1O[C@H](CO)[C@@H](O)[C@H]1O", "note": "[ADO, Adenosine]", "values": [{"measurement": "Infarct size (of the risk area)", "setting": "ADO 10 μM, 5 minutes, control 32.2±1.5%, PC 8.8±2.3%", "result": "11.4±2.3", "unit": "%"}]}
{"molecule": "Nc1ccc(CCNc2ncnc3c2ncn3[C@@H]2O[C@H](CO)[C@@H](O)[C@H]2O)cc1", "note": "[APNEA, N^6-(2-(4-aminophenyl)ethyl) adenosine]", "values": [{"measurement": "Infarct size (of the risk area)", "setting": "APNEA 65 μM (so in the source), 5 minutes, control 32.2±1.5%", "result": "12.6±2.2", "unit": "%"}]}
{"molecule": "CCCn1c(=O)c2[nH]c(C3CCCC3)nc2n(CCC)c1=O", "note": "[DPCPX, 8-cyclopentyl-1,3-dipropylxanthine]", "values": [{"measurement": "Infarct size (of the risk area)", "setting": "DPCPX 200 nM + ADO", "result": "14.4±2.8", "unit": "%"}, {"measurement": "Infarct size (of the risk area)", "setting": "DPCPX 200 nM + APNEA", "result": "8.7±1.7", "unit": "%"}, {"measurement": "Infarct size (of the risk area)", "setting": "DPCPX 200 nM + PC", "result": "15.6±7.8", "unit": "%"}]}
{"molecule": "Cn1c(=O)c2[nH]c(-c3ccc(S(=O)(=O)O)cc3)nc2n(C)c1=O", "note": "[SPT, 8-(p-Sulfophenyl)-theophylline]", "values": [{"measurement": "Infarct size (of the risk area)", "setting": "8-SPT 100 μM + ADO", "result": "29.8±3.7", "unit": "%"}, {"measurement": "Infarct size (of the risk area)", "setting": "8-SPT 100 μM + APNEA", "result": "30.3±3.3", "unit": "%"}, {"measurement": "Infarct size (of the risk area)", "setting": "8-SPT 100 μM + PC", "result": "33.8±2.7", "unit": "%"}]}
